Here are results for two compounds from patent publication US9439976B2, “Compositions and methods for using cathepsin E cleavable substrates” (The Methodist Hospital System, priority 2013, dated 2016).

The subject of data set [1] is MPanc96-CTSE cells. Format: cell-based. As to conditions: human. The procedure:
To determine the number of viable cells after light treatment, a homogeneous colorimetric method, the MTS Cell cytotoxicity assay (Cell Titer 96® Aqueous, Promega, Madison, Wis.) was used. MPanc96-CTSE and MPanc96-FG30 (2×10^4) cells were incubated with various concentrations (0.1, 0.5, 1, and 5 μM) of the 5-ALA prodrug for 30 minutes, followed by treatment with a range of light doses (2.5, 5, 10, and 15 J/cm^2) and incubated overnight at 37° C. and 5% CO2 in 96-well plates. Cells treated only with light or the 5-ALA prodrug were used as negative controls. […] The formation of colored formazan was measured directly in 96-well assay plates at 490 nm absorbance without additional processing. […] After PDT, MPanc96-CTSE cells were washed with PBS buffer, treated with 1 μL YO-PRO-1 and PI stock solution per milliliter medium and incubated on ice for 25 minutes, followed by fluorescence imaging using an inverted epifluorescence microscope. […]
To quantitate cell viability upon photodynamic treatment with the 5-ALA prodrug, PDAC cells were subjected to homogeneous, colorimetric MTS cytotoxicity assay. […] After incubating PDAC cells with the tetrazolium compound, living PDAC cells in culture were quantified directly by measuring the absorbance of the produced formazan product at 490 nm.

Data set [2] relates to PDAC (p53 conditional deletion/LSL-KrasG12D/Pdx1-Cre). In words: In vivo photodynamic therapy, TUNEL staining of PDAC pancreas in genetically engineered mice. More on the design: species or system mouse. To be noted: mice with PDAC, 1 mg 5-ALA equivalent/kg i.v., 10 J/cm^2 light at 652 nm 1 hour after injection, tissue 24 hours later. The procedure:
All animal studies were performed in compliance with the approved animal protocols and guidelines of Institutional Animal Care and Use Committee of University of Texas MD Anderson Cancer Center. […] Littermates without PDAC served as controls. LSL-KRasG12D, p53-floxed, and Pdx-1-Cre genetic mice were obtained from the Mouse Models for Human Cancer Consortium Repository (Rockville, Md.). Mice were divided into three groups of five transgenic mice with PDAC tumors and three normal littermate controls. Mice were injected with a single dose of saline, free 5-ALA, or the 5-ALA prodrug (1 mg 5-ALA equivalent/kg, 50 μL) intravenously through the tail vein using a 30 gauge needle. Mice were incubated for 60 minutes in a full metabolically active environment and anesthetized by intraperitoneal injection of sodium pentobarbital, at a dose of 50-90 mg/kg diluted to 6 mg/ml. The pancreas was exposed through a left abdominal incision (1 cm, laparotomy) and treated with a 10-J/cm^2 dose of light using a diode laser (652 nm) and incidence fluence rate of 50 mW/cm^2 for 3.5 minutes. After PDT, the pancreas was carefully returned to the peritoneal cavity and the abdomen was closed. One day after light treatment, animals were sacrificed and the pancreases were harvested for subsequent evaluation. […]

For data set [3], the system named is MPanc96-CTSE cells. The experiment in a line: Cellular release of 5-ALA, PpIX fluorescence imaging, Cath E-high cells. Format: cell-based, human. As to conditions: unfixed MPanc96-CTSE cells, 0.5 μM, 37° C. The procedure: Mpanc96-CTSE and Mpanc96-FG30 cells (1.2×10^4) were treated in 96-well plates with various concentrations (0.1, 0.5, 1, and 5 μM in 100 μL) of 5-ALA prodrug, incubated for 30 minutes at 37° C., and washed several times with PBS. Fluorescence images of the cells were acquired using an inverted epifluorescence microscope and a TRITC (tetramethyl rhodamine isothiocyanate) filter (λex=557 nm and λem=576 nm). Free 5-ALA and untreated cells were included as controls. The possible light damage done in the absence of photosensitizer was evaluated by irradiating Cath E-positive Mpanc96-CTSE cells with various doses (2.5, 5, 10, 15, and 18 J/cm^2) of light using a diode laser system (652 nm; B&W TEK, Newark, Del.). Phototoxicity of the 5-ALA prodrug was assessed by incubating Mpanc96-CTSE and Mpanc96-FG30 cells in 96-well plates with 0.1 μM 5-ALA prodrug for 30 minutes at 37° C. The cells were washed several times with PBS, the medium was replaced with growth medium, and the cells were treated with a single dose of 10 J/cm2. After PDT, the treated cells and controls were incubated overnight followed by imaging to detect changes in cell morphology.

Where a SMILES comes first, the peptide text is derived from it. The star is where a group is joined. X1 = O=C(O)CCC(=O)CN*

As to `CC(C)C[C@H](NC(=O)[C@H](CO)NC(=O)[C@H](Cc1ccccc1)NC(=O)CNC(=O)[C@H](C)NC(=O)[C@H](CCC(N)=O)NC(=O)[C@@H](N)CCCNC(=N)N)C(=O)NCC(=O)CCC(=O)O` [5-ALA prodrug, H-Arg-Gln-Ala-Gly-Phe-Ser-Leu-5-ALA-OH] (H-RQAGFSL-X1), in the data set with MPanc96-CTSE cells [1], the “Cell viability (MTS)” value is reported as “approximately 20%”.
Regarding `NCC(=O)CCC(=O)O` [free 5-ALA, 5-aminolevulinic acid], the “Apoptosis in PDAC tissue sections (TUNEL)” value in data set [2] is on record as “multiple apoptotic cells”. Further, in the data set with MPanc96-CTSE cells [3], the “PpIX fluorescence signal in cells (TRITC channel)” value was “comparable”.
